Active and inactive are the calls of the source.
What was measured:
[1] = biological target: T1, Tubulin alpha (Homo sapiens) (UniProt P0DPH7+P68366+Q71U36+P68363+Q9BQE3+Q6PEY2+A6NHL2+Q9NY65); test: Binding affinity to alpha-tubulin in human MDA-MB-453 cells measured after 6 hrs by pull-down assay; type: cell-based; conditions: dose <= 20.0 µM, DDE = dose-dependent effect
Homo sapiens = species: Homo sapiens; test: Binding affinity to ADP-bound full-length human HSP70 assessed as Cys574 adduct formation at SBDalpha domain by LC-MS/MS analysis
Jurkat = test: Cytotoxicity against human Jurkat T cells measured after 72 hrs; type: functional, cell-based
DOHH-2 = test: Induction of apoptosis in human DOHH-2 cells assessed as increase in cleaved caspase-3 expression at 8 uM measured after 4 to 24 hrs by Western blot analysis; type: functional, cell-based; conditions: time 4-24 hrs
Plastin-2 (Homo sapiens) = biological target: T2, Plastin-2 (Homo sapiens) (UniProt P13796); test: Binding affinity to plastin-2 in human DOHH-2 cells measured after 6 hrs by pull-down assay; type: cell-based; conditions: DDE = dose-dependent effect
T2 sequence (whole entry): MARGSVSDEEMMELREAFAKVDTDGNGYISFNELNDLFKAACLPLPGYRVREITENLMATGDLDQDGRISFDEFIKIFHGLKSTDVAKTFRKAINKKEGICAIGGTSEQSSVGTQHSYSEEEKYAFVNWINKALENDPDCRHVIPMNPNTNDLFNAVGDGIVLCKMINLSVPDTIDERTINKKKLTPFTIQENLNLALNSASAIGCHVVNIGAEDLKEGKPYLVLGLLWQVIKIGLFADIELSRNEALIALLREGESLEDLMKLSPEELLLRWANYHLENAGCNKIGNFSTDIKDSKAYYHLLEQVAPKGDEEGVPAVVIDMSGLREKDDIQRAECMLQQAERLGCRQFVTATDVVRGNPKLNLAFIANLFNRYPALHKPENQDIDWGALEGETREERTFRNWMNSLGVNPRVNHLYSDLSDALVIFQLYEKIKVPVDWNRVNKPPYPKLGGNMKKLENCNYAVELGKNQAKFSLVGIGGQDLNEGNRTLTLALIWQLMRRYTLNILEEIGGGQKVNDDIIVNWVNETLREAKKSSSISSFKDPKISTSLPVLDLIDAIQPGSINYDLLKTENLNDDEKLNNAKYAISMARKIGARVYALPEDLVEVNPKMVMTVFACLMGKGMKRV

[2] = biological target: T3, Peroxiredoxin-5, mitochondrial (Homo sapiens) (UniProt P30044); test: Binding affinity to PRDX5 in human DOHH-2 cells measured after 6 hrs by pull-down assay; type: cell-based; conditions: DDE = dose-dependent effect
T3 sequence (whole entry): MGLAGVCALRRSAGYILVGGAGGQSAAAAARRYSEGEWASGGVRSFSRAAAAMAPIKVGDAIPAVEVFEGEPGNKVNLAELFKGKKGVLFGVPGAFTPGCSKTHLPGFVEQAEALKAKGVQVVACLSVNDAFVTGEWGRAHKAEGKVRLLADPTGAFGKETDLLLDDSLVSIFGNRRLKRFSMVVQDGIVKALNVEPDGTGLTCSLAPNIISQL

[3] = biological target: T4, Protein disulfide-isomerase A6 (Homo sapiens) (UniProt Q15084); test: Binding affinity to PDIA6 in human DOHH-2 cells measured after 6 hrs by pull-down assay; type: cell-based; conditions: DDE = dose-dependent effect
T4 sequence (whole entry): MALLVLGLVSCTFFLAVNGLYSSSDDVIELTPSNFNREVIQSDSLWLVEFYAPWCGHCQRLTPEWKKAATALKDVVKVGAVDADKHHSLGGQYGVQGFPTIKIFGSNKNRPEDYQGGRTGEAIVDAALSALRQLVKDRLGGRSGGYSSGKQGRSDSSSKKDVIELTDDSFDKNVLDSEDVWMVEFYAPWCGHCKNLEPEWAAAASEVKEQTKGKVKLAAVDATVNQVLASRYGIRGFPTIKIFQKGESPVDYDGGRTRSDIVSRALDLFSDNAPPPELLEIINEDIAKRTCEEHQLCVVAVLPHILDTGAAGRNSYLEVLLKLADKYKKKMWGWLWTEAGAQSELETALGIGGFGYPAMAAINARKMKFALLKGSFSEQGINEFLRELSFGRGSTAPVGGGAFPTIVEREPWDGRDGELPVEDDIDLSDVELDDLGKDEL

[4] = biological target: T5, Thioredoxin-dependent peroxide reductase, mitochondrial (Homo sapiens) (UniProt P30048); test: Binding affinity to PRDX3 in human MDA-MB-453 cells measured after 6 hrs by pull-down assay; type: cell-based; conditions: dose <= 20.0 µM, DDE = dose-dependent effect
T5 sequence (whole entry): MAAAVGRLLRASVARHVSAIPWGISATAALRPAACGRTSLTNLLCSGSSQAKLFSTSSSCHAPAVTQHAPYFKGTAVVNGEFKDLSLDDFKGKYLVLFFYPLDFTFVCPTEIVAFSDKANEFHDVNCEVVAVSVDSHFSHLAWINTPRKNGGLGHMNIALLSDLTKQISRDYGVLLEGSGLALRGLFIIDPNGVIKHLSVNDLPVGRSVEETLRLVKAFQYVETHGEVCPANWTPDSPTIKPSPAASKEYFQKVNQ

[5] = biological target: Glutathione S-transferase P (Homo sapiens) (UniProt P09211); test: Binding affinity to GSTP1 in human MDA-MB-453 cells measured after 6 hrs by pull-down assay; type: cell-based; conditions: dose <= 20.0 µM, DDE = dose-dependent effect
Glutathione S-transferase P (Homo sapiens), sequence (P09211 2-210 limits assumed): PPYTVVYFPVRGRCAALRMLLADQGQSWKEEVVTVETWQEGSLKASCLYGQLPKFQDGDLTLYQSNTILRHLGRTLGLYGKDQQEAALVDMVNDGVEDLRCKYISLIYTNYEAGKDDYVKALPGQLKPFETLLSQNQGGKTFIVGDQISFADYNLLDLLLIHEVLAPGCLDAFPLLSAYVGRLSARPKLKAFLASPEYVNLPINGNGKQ

[6] = biological target: T1, Tubulin alpha (Homo sapiens); test: Binding affinity to alpha-tubulin in human DOHH-2 cells by MS analysis; type: cell-based
[7] = biological target: T6, Protein disulfide-isomerase A4 (Homo sapiens) (UniProt P13667); test: Binding affinity to PDIA4 in human DOHH-2 cells by MS analysis; type: cell-based
T6 sequence (whole entry): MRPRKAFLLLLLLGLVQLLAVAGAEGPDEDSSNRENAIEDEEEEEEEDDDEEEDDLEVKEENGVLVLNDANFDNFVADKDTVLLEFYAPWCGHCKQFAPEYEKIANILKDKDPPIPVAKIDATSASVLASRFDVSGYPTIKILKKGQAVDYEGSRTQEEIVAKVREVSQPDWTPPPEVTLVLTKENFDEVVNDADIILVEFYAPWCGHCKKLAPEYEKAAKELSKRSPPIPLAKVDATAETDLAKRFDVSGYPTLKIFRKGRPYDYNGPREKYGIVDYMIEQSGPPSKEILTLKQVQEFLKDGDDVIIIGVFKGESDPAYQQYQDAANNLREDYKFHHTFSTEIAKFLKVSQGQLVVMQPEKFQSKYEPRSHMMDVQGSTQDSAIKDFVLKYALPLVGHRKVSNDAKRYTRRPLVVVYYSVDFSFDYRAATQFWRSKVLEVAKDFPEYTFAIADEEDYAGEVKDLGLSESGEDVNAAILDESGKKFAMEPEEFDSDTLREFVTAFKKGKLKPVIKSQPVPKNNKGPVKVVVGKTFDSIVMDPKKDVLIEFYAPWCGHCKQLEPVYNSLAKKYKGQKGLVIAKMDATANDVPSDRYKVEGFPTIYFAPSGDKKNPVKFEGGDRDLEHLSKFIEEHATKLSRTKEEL

Measured: Activity

C#Cc1cccc(C#CS(N)(=O)=O)c1
active: [1] Dde | Homo sapiens | Jurkat | DOHH-2 | Plastin-2 (Homo sapiens) Dde | [2] Dde | [3] Dde | [4] Dde | [5] Dde | [6] | [7]

From ChEMBL document CHEMBL5143564, “PES derivative PESA is a potent tool to globally profile cellular targets of PES” (Bioorg Med Chem Lett, 2022)
